Laboratory results reported in ChEMBL document CHEMBL5108052, “Histone Deacetylase and Enhancer of Zeste Homologue 2 Dual Inhibitors Presenting a Synergistic Effect for the Treatment of Hematological Malignancies” (J Med Chem, 2022).

How the values were obtained:
Histone deacetylase 4 = Histone deacetylase 4 (Homo sapiens, UniProt P56524); test: Inhibition of N-terminal GST-tagged/C-terminal His-tagged human HDAC4 (627 to 1084 residues) expressed in baculovirus expression system using trifluoroacetyl lysine as substrate incubated for 2 hrs by Multimode microplate reader analysis
Histone deacetylase 8 = target: T1, Histone deacetylase 8 (Homo sapiens, UniProt Q9BY41); test: Inhibition of recombinant C-terminal His-fusion tagged/N-terminal Strep2 tagged human HDAC8 (1 to 377 residues) expressed in insect cells using RHK-K(Ac)-K(Ac)-AMC as substrate incubated for 2 hrs by Multimode microplate reader analysis
T1 sequence (Q9BY41 whole entry): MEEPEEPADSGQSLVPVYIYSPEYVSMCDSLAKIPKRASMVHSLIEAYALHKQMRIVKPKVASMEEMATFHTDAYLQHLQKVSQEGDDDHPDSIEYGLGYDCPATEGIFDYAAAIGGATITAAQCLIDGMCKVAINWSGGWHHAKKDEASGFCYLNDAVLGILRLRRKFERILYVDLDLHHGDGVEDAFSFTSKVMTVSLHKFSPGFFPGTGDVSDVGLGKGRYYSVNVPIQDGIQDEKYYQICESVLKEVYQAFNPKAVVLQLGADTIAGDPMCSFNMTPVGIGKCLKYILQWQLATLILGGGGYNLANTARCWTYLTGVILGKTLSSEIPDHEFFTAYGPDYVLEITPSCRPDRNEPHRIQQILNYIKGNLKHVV

MV4-11 [1] = test: Induction of apoptosis in human MV4-11 cells assessed as necrotic cells at 0.4 uM measured after 48 hrs by Annexin V/7-AAD-dual staining based flow cytometric analysis (reference value: 0.3 %); type: functional
MV4-11 [2] = test: Induction of apoptosis in human MV4-11 cells assessed as viable cells at 0.4 uM measured after 48 hrs by Annexin V/7-AAD-dual staining based flow cytometric analysis (reference value: 96.4 %); type: functional; conditions: read-out: Activity
MV4-11 [3] = test: Induction of apoptosis in human MV4-11 cells assessed as early apoptotic cells at 0.4 uM measured after 48 hrs by Annexin V/7-AAD-dual staining based flow cytometric analysis (reference value: 2.2 %); type: functional
Homo sapiens = species: Homo sapiens; conditions: time 90.0 sec
[4] = target: T2, Protein deacetylase HDAC6 (Homo sapiens, UniProt Q9UBN7); test: Inhibition of HDAC6 (unknown origin) preincubated for 5 mins followed by substrate addition and measured after 30 mins by multimode microplate reader analysis
T2 sequence (Q9UBN7 whole entry): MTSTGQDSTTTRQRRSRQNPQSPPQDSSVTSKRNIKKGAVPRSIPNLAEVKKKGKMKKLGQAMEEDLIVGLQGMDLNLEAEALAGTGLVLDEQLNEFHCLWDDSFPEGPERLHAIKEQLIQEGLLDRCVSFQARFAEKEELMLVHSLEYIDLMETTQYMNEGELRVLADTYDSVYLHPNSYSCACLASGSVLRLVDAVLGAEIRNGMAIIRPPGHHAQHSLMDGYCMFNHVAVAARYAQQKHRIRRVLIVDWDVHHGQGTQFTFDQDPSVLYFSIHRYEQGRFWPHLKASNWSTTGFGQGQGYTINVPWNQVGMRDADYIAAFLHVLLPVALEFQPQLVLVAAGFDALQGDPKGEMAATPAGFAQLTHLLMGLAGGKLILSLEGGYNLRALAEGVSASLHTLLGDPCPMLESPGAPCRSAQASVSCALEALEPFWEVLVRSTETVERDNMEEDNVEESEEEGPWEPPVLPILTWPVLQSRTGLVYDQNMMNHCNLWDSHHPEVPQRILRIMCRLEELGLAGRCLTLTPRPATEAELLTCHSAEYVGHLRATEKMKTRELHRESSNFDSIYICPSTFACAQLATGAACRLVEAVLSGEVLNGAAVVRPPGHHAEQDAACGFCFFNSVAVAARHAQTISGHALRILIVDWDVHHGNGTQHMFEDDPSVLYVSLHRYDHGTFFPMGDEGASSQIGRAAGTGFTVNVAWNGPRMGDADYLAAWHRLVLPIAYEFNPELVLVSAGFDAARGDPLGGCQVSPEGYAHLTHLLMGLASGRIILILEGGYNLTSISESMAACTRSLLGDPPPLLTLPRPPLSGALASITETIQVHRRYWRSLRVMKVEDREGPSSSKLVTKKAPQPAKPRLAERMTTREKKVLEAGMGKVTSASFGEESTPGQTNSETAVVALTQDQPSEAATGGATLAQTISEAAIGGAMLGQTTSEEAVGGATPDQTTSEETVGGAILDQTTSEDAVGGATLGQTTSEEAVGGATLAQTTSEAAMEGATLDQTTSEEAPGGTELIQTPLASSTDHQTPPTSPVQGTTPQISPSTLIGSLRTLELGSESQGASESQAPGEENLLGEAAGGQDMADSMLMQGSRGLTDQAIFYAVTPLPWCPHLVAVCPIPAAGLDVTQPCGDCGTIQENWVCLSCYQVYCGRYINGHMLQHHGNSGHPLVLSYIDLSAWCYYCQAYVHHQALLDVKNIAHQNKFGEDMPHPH

Histone deacetylase 2 = Histone deacetylase 2 (Homo sapiens, UniProt Q92769); test: Inhibition of full length recombinant human C-terminal GST-fusion-tagged human HDAC2 (1 to 488 residues) expressed in insect cells using RHK-K(Ac)-AMC as substrate incubated for 2 hrs by Multimode microplate reader analysis
MV4-11 [5] = test: Induction of apoptosis in human MV4-11 cells assessed as viable cells at 0.2 uM measured after 48 hrs by Annexin V/7-AAD-dual staining based flow cytometric analysis (reference value: 96.4 %); type: functional; conditions: read-out: Activity
MV4-11 [6] = test: Induction of apoptosis in human MV4-11 cells assessed as early apoptotic cells at 0.2 uM measured after 48 hrs by Annexin V/7-AAD-dual staining based flow cytometric analysis (reference value: 2.2 %); type: functional
MV4-11 [7] = test: Induction of apoptosis in human MV4-11 cells assessed as late apoptotic cells at 0.1 uM measured after 48 hrs by Annexin V/7-AAD-dual staining based flow cytometric analysis (reference value: 1.1 %); type: functional
MV4-11 [8] = test: Antitumor activity against human MV4-11 cells xenografted in BALB/c nude mouse assessed as tumor growth inhibition at 50 mg/kg, ip administered for 20 days in presence of by vernier caliper analysis; type: functional; conditions: MV4-11, 480 h, time 20 day, read-out: TGI
MV4-11 [9] = test: Induction of mitochondrial membrane potential in human MV4-11 cells assessed as reduction in red fluorescence intensity at 0.2 uM measured after 48 hrs by JC1 staining-based flow cytometry analysis (reference value: 98.8%); type: functional; design: scale not given: the % may be the effect or the level left
Histone deacetylase 5 = Histone deacetylase 5 (Homo sapiens, UniProt Q9UQL6); test: Inhibition of recombinant C-terminal his fusion-tagged human HDAC5 (656 to 1122 residues) expressed in baculovirus expression system using trifluoroacetyl lysine as substrate incubated for 2 hrs by Multimode microplate reader analysis
MV4-11 [10] = test: Induction of apoptosis in human MV4-11 cells assessed as early apoptotic cells at 0.1 uM measured after 48 hrs by Annexin V/7-AAD-dual staining based flow cytometric analysis (reference value: 2.2 %); type: functional

Sequence of Histone deacetylase 2 (Q92769 whole entry, the tested form may be a part): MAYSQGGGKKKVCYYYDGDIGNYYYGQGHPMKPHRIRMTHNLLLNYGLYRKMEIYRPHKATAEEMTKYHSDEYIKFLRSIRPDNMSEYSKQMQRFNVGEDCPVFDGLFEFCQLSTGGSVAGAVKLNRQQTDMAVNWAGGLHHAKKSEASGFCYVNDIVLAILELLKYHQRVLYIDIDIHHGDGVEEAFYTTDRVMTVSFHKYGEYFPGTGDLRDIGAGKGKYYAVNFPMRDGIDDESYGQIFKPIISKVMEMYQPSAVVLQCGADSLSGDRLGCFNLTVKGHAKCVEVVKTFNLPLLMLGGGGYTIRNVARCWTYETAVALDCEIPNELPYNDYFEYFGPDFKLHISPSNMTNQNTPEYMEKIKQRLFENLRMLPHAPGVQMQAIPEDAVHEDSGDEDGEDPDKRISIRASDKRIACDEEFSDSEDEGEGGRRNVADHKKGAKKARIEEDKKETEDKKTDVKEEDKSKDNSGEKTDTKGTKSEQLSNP
Sequence of Histone deacetylase 4 (P56524 whole entry, the tested form may be a part): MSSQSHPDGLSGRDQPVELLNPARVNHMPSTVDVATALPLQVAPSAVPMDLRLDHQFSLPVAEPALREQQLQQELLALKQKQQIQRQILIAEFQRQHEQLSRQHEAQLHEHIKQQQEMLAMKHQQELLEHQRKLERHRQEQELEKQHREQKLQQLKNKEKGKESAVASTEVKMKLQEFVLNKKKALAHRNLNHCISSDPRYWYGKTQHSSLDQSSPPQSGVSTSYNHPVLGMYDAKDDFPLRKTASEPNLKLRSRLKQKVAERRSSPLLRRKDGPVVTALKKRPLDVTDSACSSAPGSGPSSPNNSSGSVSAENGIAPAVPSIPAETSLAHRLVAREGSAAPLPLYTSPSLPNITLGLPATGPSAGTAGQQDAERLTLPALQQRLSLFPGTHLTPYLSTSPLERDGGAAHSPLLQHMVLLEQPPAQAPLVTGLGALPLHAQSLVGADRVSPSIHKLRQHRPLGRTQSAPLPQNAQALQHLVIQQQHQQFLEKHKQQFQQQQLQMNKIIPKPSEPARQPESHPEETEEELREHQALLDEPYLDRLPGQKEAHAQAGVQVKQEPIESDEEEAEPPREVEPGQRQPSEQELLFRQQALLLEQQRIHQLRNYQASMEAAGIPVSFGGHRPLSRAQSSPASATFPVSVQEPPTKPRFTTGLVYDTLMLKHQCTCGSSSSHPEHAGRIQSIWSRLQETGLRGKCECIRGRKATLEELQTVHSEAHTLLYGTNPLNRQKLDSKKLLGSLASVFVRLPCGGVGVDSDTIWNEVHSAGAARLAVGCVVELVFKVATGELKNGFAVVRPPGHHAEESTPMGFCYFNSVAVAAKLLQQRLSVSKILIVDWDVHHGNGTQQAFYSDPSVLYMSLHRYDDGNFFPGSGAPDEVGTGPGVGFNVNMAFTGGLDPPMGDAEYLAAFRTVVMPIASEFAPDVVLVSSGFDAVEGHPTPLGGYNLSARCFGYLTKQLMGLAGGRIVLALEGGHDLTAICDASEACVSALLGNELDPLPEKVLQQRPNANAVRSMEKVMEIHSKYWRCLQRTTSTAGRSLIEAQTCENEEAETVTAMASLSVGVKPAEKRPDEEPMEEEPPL
Sequence of Histone deacetylase 5 (Q9UQL6 whole entry, the tested form may be a part): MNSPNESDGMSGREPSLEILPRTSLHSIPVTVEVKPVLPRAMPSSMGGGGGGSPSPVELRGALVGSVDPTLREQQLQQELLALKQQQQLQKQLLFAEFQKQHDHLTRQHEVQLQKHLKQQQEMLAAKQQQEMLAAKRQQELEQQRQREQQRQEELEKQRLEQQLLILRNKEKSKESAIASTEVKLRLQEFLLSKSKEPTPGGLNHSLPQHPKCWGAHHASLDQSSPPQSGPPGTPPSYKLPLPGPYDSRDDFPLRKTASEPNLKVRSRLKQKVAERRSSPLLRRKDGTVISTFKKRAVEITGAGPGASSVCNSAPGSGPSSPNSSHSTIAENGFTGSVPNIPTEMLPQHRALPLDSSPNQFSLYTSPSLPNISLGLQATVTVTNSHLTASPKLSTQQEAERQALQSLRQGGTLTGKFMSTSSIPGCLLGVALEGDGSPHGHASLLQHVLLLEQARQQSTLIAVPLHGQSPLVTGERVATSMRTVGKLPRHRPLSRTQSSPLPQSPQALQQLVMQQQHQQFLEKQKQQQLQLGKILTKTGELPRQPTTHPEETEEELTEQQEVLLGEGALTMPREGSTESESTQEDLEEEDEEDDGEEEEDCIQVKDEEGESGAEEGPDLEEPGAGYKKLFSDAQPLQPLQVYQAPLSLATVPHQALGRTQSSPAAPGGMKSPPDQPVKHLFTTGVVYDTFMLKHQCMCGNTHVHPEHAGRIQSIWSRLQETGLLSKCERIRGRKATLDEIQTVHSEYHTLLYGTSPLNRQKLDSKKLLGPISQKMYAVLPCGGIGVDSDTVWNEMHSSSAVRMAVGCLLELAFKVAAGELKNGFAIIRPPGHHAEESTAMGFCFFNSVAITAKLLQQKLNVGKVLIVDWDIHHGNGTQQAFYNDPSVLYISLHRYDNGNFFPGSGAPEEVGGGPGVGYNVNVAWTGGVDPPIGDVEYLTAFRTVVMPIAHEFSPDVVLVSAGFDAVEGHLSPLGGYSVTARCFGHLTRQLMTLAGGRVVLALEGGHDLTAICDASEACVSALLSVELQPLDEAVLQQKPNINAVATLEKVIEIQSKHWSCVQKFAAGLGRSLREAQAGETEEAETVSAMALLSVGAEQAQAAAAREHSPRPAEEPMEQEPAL

`Cc1cc(C)c(CNC(=O)c2cc(-c3ccc(N4CCN(c5ncc(C(=O)NO)cn5)CC4)nc3)cc3c2cnn3C(C)C)c(=O)[nH]1` gave an IC50 (Histone deacetylase 4) of 5.64 µM, an IC50 (Histone deacetylase 8) of 0.11 µM and an Activity (MV4-11 [1]) of 0.1%. For the same compound, the viability at 0.4 µM (MV4-11 [2]) was 53.8%, the Activity (MV4-11 [3]) was 23.3% and the Ka (Homo sapiens) was 2.18 10^5/M/s. The IC50 [4] was 0.7 µM, the IC50 (Histone deacetylase 2) was 0.78 µM and the viability at 0.2 µM (MV4-11 [5]) was 74%. It also gave an Activity (MV4-11 [6]) of 10.3%, an Activity (MV4-11 [7]) of 4.4% and an inhibition in vivo at 50 mg/kg (MV4-11 [8]) of 65.7%. The Activity (MV4-11 [9]) was 84.3%, the IC50 (Histone deacetylase 5) was 2.86 µM and the Activity (MV4-11 [10]) was 5.4%.
